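Exposure lasted 48 hours, with cells grown in 96-well plates and compounds tested at five concentrations. GI50: concentration for 50% inhibition of growth.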 Activity calls are given as the source filed them. Cut-off read from the data, not from the text of the source: active = GI50 up to about 1.1 µM and inactive = higher.
Key:
Test in all cases: NCI tumour cell line growth inhibition, 48 h
HCC 2998 = test system: HCC 2998
OVCAR-5 = test system: OVCAR-5
RPMI-8226 = test system: RPMI-8226
PC-3 = test system: PC-3
OVCAR-4 = test system: OVCAR-4
SNB-75 = test system: SNB-75
HOP-62 = test system: HOP-62
SN12C = test system: SN12C
DU-145 = test system: DU-145
SK-MEL-28 = test system: SK-MEL-28
SK-MEL-2 = test system: SK-MEL-2
BT-549 = test system: BT-549
CCRF-CEM = test system: CCRF-CEM
786-0 = test system: 786-0
HT-29 = test system: HT-29
NCI-H23 = test system: NCI-H23
K562 = test system: K562
SF-539 = test system: SF-539
HL-60 = test system: HL-60
SR = test system: SR

Q: `CCCCCC(/C=C/[C@@H]1[C@@H](C(O)CCCCCC(=O)OC)C(=O)C[C@H]1O[Si](C)(C)C(C)(C)C)OCOCCOC` (stereo partly specified) was tested. Which GI50 (HCC 2998) did it give?
A: 23 µM (inactive)

Q: And the GI50 (OVCAR-5)?
A: 21.1 µM (inactive)

Q: And the GI50 (RPMI-8226)?
A: 2.71 µM (inactive)

Q: And the GI50 (PC-3)?
A: 13.8 µM (inactive)

Q: What about the GI50 (OVCAR-4) of the same molecule?
A: 18.5 µM (inactive)

Q: And the GI50 (SNB-75)?
A: 10.4 µM (inactive)

Q: What about the GI50 (HOP-62) of the same molecule?
A: 16.9 µM (inactive)

Q: And the GI50 (SN12C)?
A: 19.7 µM (inactive)

Q: And the GI50 (DU-145)?
A: 18 µM (inactive)

Q: And the GI50 (SK-MEL-28)?
A: 15.3 µM (inactive)

Q: And the GI50 (SK-MEL-2)?
A: 17 µM (inactive)

Q: What about the GI50 (BT-549) of the same molecule?
A: 9.06 µM (inactive)

Q: And the GI50 (CCRF-CEM)?
A: 2.62 µM (inactive)

Q: And the GI50 (786-0)?
A: 15.6 µM (inactive)

Q: And the GI50 (HT-29)?
A: 6.7 µM (inactive)

Q: What about the GI50 (NCI-H23) of the same molecule?
A: 15 µM (inactive)

Q: And the GI50 (K562)?
A: > 21 µM (inactive)

Q: And the GI50 (SF-539)?
A: 7.11 µM (inactive)

Q: Which results are given for `CC1=NN(c2cccc(Cl)c2)C(=N/c2nc3ccccc3s2)/C1=C\c1ccccc1O`?
A: GI50 (HCC 2998): 19.6 µM (inactive); GI50 (OVCAR-5): 61.7 µM (inactive); GI50 (RPMI-8226): 34.8 µM (inactive); GI50 (PC-3): 20.5 µM (inactive); GI50 (OVCAR-4): 47.5 µM (inactive); GI50 (SNB-75): 25.4 µM (inactive); GI50 (HOP-62): 29.6 µM (inactive); GI50 (HL-60): 28.1 µM (inactive); GI50 (SR): 40.6 µM (inactive); GI50 (DU-145): 43.8 µM (inactive); GI50 (SK-MEL-28): 27.4 µM (inactive); GI50 (SK-MEL-2): 18.9 µM (inactive); GI50 (CCRF-CEM): 35.9 µM (inactive); GI50 (786-0): 30.1 µM (inactive); GI50 (HT-29): 39.7 µM (inactive); GI50 (NCI-H23): 27.5 µM (inactive); GI50 (K562): 37 µM (inactive); GI50 (SF-539): 42.8 µM (inactive)

Q: With `N#Cc1nc(C2SCCCS2)oc1N` as the molecule, how does the GI50 (OVCAR-5) read?
A: > 100 µM (inactive)

Q: And the GI50 (RPMI-8226)?
A: 95.7 µM (inactive)

Q: What about the GI50 (PC-3) of the same molecule?
A: > 100 µM (inactive)

Q: What about the GI50 (OVCAR-4) of the same molecule?
A: > 100 µM (inactive)

Q: And the GI50 (SNB-75)?
A: < 0.01 µM (active)

Q: What about the GI50 (HOP-62) of the same molecule?
A: > 100 µM (inactive)

Q: What about the GI50 (HL-60) of the same molecule?
A: > 100 µM (inactive)

Q: And the GI50 (SN12C)?
A: > 100 µM (inactive)

Q: What about the GI50 (SR) of the same molecule?
A: > 100 µM (inactive)

Q: And the GI50 (DU-145)?
A: > 100 µM (inactive)

Q: And the GI50 (SK-MEL-28)?
A: > 100 µM (inactive)

Q: And the GI50 (SK-MEL-2)?
A: > 100 µM (inactive)

Q: What about the GI50 (CCRF-CEM) of the same molecule?
A: 64.3 µM (inactive)

Q: And the GI50 (786-0)?
A: > 100 µM (inactive)

Q: And the GI50 (HT-29)?
A: > 100 µM (inactive)

Q: And the GI50 (K562)?
A: > 100 µM (inactive)

Q: Which results are given for `O=C1CCN(CCC(F)(F)C(F)(F)C(F)(F)C(F)(F)C(F)(F)C(F)(F)F)C(=S)N1CCC(F)(F)C(F)(F)C(F)(F)C(F)(F)C(F)(F)C(F)(F)F`?
A: GI50 (HCC 2998): > 100 µM (inactive); GI50 (OVCAR-5): > 100 µM (inactive); GI50 (PC-3): > 100 µM (inactive); GI50 (OVCAR-4): > 100 µM (inactive); GI50 (SNB-75): > 100 µM (inactive); GI50 (HOP-62): > 100 µM (inactive); GI50 (HL-60): > 100 µM (inactive); GI50 (SN12C): > 100 µM (inactive); GI50 (SR): > 100 µM (inactive); GI50 (DU-145): > 100 µM (inactive); GI50 (SK-MEL-28): > 100 µM (inactive); GI50 (BT-549): > 100 µM (inactive); GI50 (CCRF-CEM): > 100 µM (inactive); GI50 (786-0): > 100 µM (inactive); GI50 (HT-29): > 100 µM (inactive); GI50 (NCI-H23): > 100 µM (inactive); GI50 (K562): > 100 µM (inactive); GI50 (SF-539): > 100 µM (inactive)

Q: `c1ccc(CC2COC(c3cccs3)=N2)cc1` (stereo unspecified) was tested. Which GI50 (HCC 2998) did it give?
A: > 73.8 µM (inactive)

Q: What about the GI50 (OVCAR-5) of the same molecule?
A: > 100 µM (inactive)

Q: What about the GI50 (RPMI-8226) of the same molecule?
A: > 70.3 µM (inactive)

Q: What about the GI50 (OVCAR-4) of the same molecule?
A: > 100 µM (inactive)

Q: What about the GI50 (SNB-75) of the same molecule?
A: 42.6 µM (inactive)

Q: What about the GI50 (HOP-62) of the same molecule?
A: > 100 µM (inactive)

Q: What about the GI50 (HL-60) of the same molecule?
A: 37.3 µM (inactive)

Q: And the GI50 (SN12C)?
A: > 64.4 µM (inactive)

Q: What about the GI50 (SR) of the same molecule?
A: 46.7 µM (inactive)

Q: What about the GI50 (DU-145) of the same molecule?
A: 42.1 µM (inactive)

Q: And the GI50 (SK-MEL-28)?
A: > 100 µM (inactive)

Q: What about the GI50 (SK-MEL-2) of the same molecule?
A: 43.8 µM (inactive)

Q: What about the GI50 (BT-549) of the same molecule?
A: 54.8 µM (inactive)

Q: What about the GI50 (CCRF-CEM) of the same molecule?
A: 38.1 µM (inactive)

Q: And the GI50 (786-0)?
A: > 100 µM (inactive)

Q: What about the GI50 (HT-29) of the same molecule?
A: > 100 µM (inactive)

Q: What about the GI50 (NCI-H23) of the same molecule?
A: > 79.8 µM (inactive)

Q: What about the GI50 (K562) of the same molecule?
A: 46.6 µM (inactive)

Q: What about the GI50 (SF-539) of the same molecule?
A: > 45 µM (inactive)

Q: With `COc1cc(CN2CCCCC2)cc2cc(C(=O)O)c(=O)oc12` as the molecule, how does the GI50 (HCC 2998) read?
A: > 100 µM (inactive)

Q: What about the GI50 (OVCAR-5) of the same molecule?
A: > 100 µM (inactive)

Q: What about the GI50 (RPMI-8226) of the same molecule?
A: > 100 µM (inactive)

Q: And the GI50 (PC-3)?
A: > 100 µM (inactive)

Q: What about the GI50 (OVCAR-4) of the same molecule?
A: > 100 µM (inactive)

Q: What about the GI50 (SNB-75) of the same molecule?
A: > 100 µM (inactive)

Q: What about the GI50 (HOP-62) of the same molecule?
A: > 100 µM (inactive)

Q: What about the GI50 (HL-60) of the same molecule?
A: > 100 µM (inactive)

Q: What about the GI50 (SN12C) of the same molecule?
A: > 100 µM (inactive)

Q: And the GI50 (DU-145)?
A: > 100 µM (inactive)

Q: What about the GI50 (SK-MEL-28) of the same molecule?
A: > 100 µM (inactive)

Q: And the GI50 (SK-MEL-2)?
A: > 100 µM (inactive)

Q: And the GI50 (BT-549)?
A: > 100 µM (inactive)

Q: What about the GI50 (CCRF-CEM) of the same molecule?
A: > 100 µM (inactive)

Q: And the GI50 (786-0)?
A: > 100 µM (inactive)

Q: What about the GI50 (HT-29) of the same molecule?
A: > 100 µM (inactive)

Q: And the GI50 (NCI-H23)?
A: > 100 µM (inactive)

Q: And the GI50 (K562)?
A: > 100 µM (inactive)

Q: And the GI50 (SF-539)?
A: > 100 µM (inactive)

Q: `NCC#CCNCCCN1CC1` was tested. Which GI50 (HCC 2998) did it give?
A: > 100 µM (inactive)

Q: What about the GI50 (OVCAR-5) of the same molecule?
A: > 100 µM (inactive)

Q: What about the GI50 (RPMI-8226) of the same molecule?
A: 6.11 µM (inactive)

Q: And the GI50 (PC-3)?
A: > 100 µM (inactive)

Q: What about the GI50 (OVCAR-4) of the same molecule?
A: > 100 µM (inactive)

Q: What about the GI50 (SNB-75) of the same molecule?
A: < 0.01 µM (active)

Q: What about the GI50 (HOP-62) of the same molecule?
A: > 100 µM (inactive)

Q: What about the GI50 (HL-60) of the same molecule?
A: > 100 µM (inactive)

Q: And the GI50 (SN12C)?
A: > 100 µM (inactive)

Q: And the GI50 (SR)?
A: > 100 µM (inactive)

Q: And the GI50 (DU-145)?
A: > 100 µM (inactive)

Q: What about the GI50 (SK-MEL-28) of the same molecule?
A: > 100 µM (inactive)

Q: And the GI50 (SK-MEL-2)?
A: > 100 µM (inactive)

Q: What about the GI50 (786-0) of the same molecule?
A: > 100 µM (inactive)

Q: And the GI50 (HT-29)?
A: > 100 µM (inactive)

Q: And the GI50 (NCI-H23)?
A: > 100 µM (inactive)

Q: And the GI50 (K562)?
A: > 100 µM (inactive)

Q: What about the GI50 (SF-539) of the same molecule?
A: > 100 µM (inactive)
